Measurements from patent US20090197880A1 (Genelabs Technologies, Inc., priority 2007, published 2009).

Assay: HCV replicon assay (luciferase) in ET (Huh-lucubineo-ET) cell line
Format: cell-based
Conditions: Hepatitis C virus; tested at 10 μM; inhibition of replication relative to no compound control; ET replicon cells, luciferase 48-72 hours; read-out: % inhition at 10 μM

Structure (SMILES) | inhibition at 10 µM
CCCCc1ccc(-c2cc(Cn3cc4nc(-c5ccccc5F)nc-4cn3)on2)cc1 [Compound 277, 5-[3-(4-Butyl-phenyl)-isoxazol-5-ylmethyl]-2-(2-fluoro-phenyl)-5H-imidazo[4,5-d]pyridazine] | 99.9%
Fc1ccccc1-c1nc2cnn(Cc3cc(-c4ccc(C(F)(F)F)cc4)no3)cc-2n1 [Compound 278, 2-(2-Fluoro-phenyl)-5-[3-(4-trifluoromethyl-phenyl)-isoxazol-5-ylmethyl]-5H-imidazo[4,5-d]pyridazine] | 99.7%
Fc1cc(C(F)(F)F)ccc1-c1cc(Cn2cc3nc(-c4ccccc4F)nc-3cn2)on1 [Compound 279, 2-(2-Fluoro-phenyl)-5-[3-(2-fluoro-4-trifluoromethyl-phenyl)-isoxazol-5-ylmethyl]-5H-imidazo[4,5-d]pyridazine] | 98.9%
Fc1ccccc1-c1nc2cnn(Cc3cc(-c4ccc(I)cc4)no3)cc-2n1 [Compound 282, 2-(2-Fluoro-phenyl)-5-[3-(4-iodo-phenyl)-isoxazol-5-ylmethyl]-5H-imidazo[4,5-d]pyridazine] | 83.4%
CC(C)(C)c1ccc(-c2cc(Cn3cc4nc(-c5ccccc5F)nc-4cn3)on2)cc1 [Compound 283, 5-[3-(4-tert-Butyl-phenyl)-isoxazol-5-ylmethyl]-2-(2-fluoro-phenyl)-5H-imidazo[4,5-d]pyridazine] | 66.7%
N#Cc1ccc(-c2cc(Cn3cc4nc(-c5ccccc5F)nc-4cn3)on2)cc1 [Compound 284, 4-{5-[2-(2-Fluoro-phenyl)-imidazo[4,5-d]pyridazin-5-ylmethyl]-isoxazol-3-yl}-benzonitrile] | 77.4%
Fc1ccccc1-c1nc2cnn(Cc3cc(-c4ccc(Br)cc4)no3)cc-2n1 [Compound 285, 5-[3-(4-Bromo-phenyl)-isoxazol-5-ylmethyl]-2-(2-fluoro-phenyl)-5H-imidazo[4,5-d]pyridazine] | 90.1%
Fc1ccccc1-c1nc2cnn(Cc3cc(-c4ccc(Br)cn4)no3)cc-2n1 [Compound 289, 5-[3-(5-Bromo-pyridin-2-yl)-isoxazol-5-ylmethyl]-2-(2-fluoro-phenyl)-5H-imidazo[4,5-d]pyridazine] | 57.3%
CC(=O)c1ccc(-c2cc(Cn3cc4nc(-c5cccc(F)c5F)nc-4cn3)on2)cc1 [Compound 290, 1-(4-{5-[2-(2,3-Difluoro-phenyl)-imidazo[4,5-d]pyridazin-5-ylmethyl]-isoxazol-3-yl}-phenyl)-ethanone] | 95.2%
Fc1ccccc1-c1nc2cnn(Cc3nnc(-c4ccc(Cl)cc4)o3)cc-2n1 [Compound 291, 5-[5-(4-Chloro-phenyl)-[1,3,4]oxadiazol-2-ylmethyl]-2-(2-fluoro-phenyl)-5H-imidazo[4,5-d]pyridazine] | 22.5%
Fc1cccc(-c2nc3cnn(Cc4onc(-c5ccc(C(F)(F)F)cc5C(F)(F)F)c4Br)cc-3n2)c1F [Compound 292, 5-[3-(2,4-Bis-trifluoromethyl-phenyl)-4-bromo-isoxazol-5-ylmethyl]-2-(2,3-difluoro-phenyl)-5H-imidazo[4,5-d]pyridazine] | 64.1%
Fc1cccc(-c2nc3cnn(Cc4cc(-c5ccc(Br)cc5C(F)(F)F)no4)cc-3n2)c1F [Compound 293, 5-[3-(4-Bromo-2-trifluoromethyl-phenyl)-isoxazol-5-ylmethyl]-2-(2,3-difluoro-phenyl)-5H-imidazo[4,5-d]pyridazine] | 99.7%
COc1ccc(-c2cc(Cn3cc4nc(-c5cccc(F)c5F)nc-4cn3)on2)c(OC)c1 [Compound 294, 2-(2,3-Difluoro-phenyl)-5-[3-(2,4-dimethoxy-phenyl)-isoxazol-5-ylmethyl]-5H-imidazo[4,5-d]pyridazine] | 50%
Fc1cccc(-c2nc3cnn(Cc4cc(-c5ccc(OCC(F)(F)F)cc5)no4)cc-3n2)c1F [Compound 295, 2-(2,3-Difluoro-phenyl)-5-{3-[4-(2,2,2-trifluoro-ethoxy)-phenyl]-isoxazol-5-ylmethyl}-5H-imidazo[4,5-d]pyridazine] | 100%
CCCOc1ccc(-c2cc(Cn3cc4nc(-c5cccc(F)c5F)nc-4cn3)on2)c(F)c1 [Compound 296, 2-(2,3-Difluoro-phenyl)-5-[3-(2-fluoro-4-propoxy-phenyl)-isoxazol-5-ylmethyl]-5H-imidazo[4,5-d]pyridazine] | 99.5%
COc1cc(OC(F)(F)F)ccc1-c1cc(Cn2cc3nc(-c4cccc(F)c4F)nc-3cn2)on1 [Compound 297, 2-(2,3-Difluoro-phenyl)-5-[3-(2-methoxy-4-trifluoromethoxy-phenyl)-isoxazol-5-ylmethyl]-5H-imidazo[4,5-d]pyridazine] | 90.8%
COc1ccc(-c2cc(Cn3cc4nc(-c5cccc(F)c5F)nc-4cn3)on2)c(OC(F)(F)F)c1 [Compound 298, 2-(2,3-Difluoro-phenyl)-5-[3-(4-methoxy-2-trifluoromethoxy-phenyl)-isoxazol-5-ylmethyl]-5H-imidazo[4,5-d]pyridazine] | 99.9%
Fc1ccc(F)c(-c2nc3cnn(Cc4cc(-c5ccc(C(F)(F)F)cc5C(F)(F)F)no4)cc-3n2)c1 [Compound 299, 5-[3-(2,4-Bis-trifluoromethyl-phenyl)-isoxazol-5-ylmethyl]-2-(2,5-difluoro-phenyl)-5H-imidazo[4,5-d]pyridazine] | 79.3%
CCCCc1ccc(-c2cc(Cn3cc4nc(-c5cccc(F)c5F)nc-4cn3)on2)cn1 [Compound 301, 5-[3-(6-Butyl-pyridin-3-yl)-isoxazol-5-ylmethyl]-2-(2,3-difluoro-phenyl)-5H-imidazo[4,5-d]pyridazine] | 97.3%
CCCCc1ccc(-c2cc(Cn3cc4nc(-c5cccc(F)c5F)nc-4cn3)on2)c(F)c1 [Compound 303, 5-[3-(4-Butyl-2-fluoro-phenyl)-isoxazol-5-ylmethyl]-2-(2,3-difluoro-phenyl)-5H-imidazo[4,5-d]pyridazine] | 99.8%
Cc1ccc(-c2cc(Cn3cc4nc(-c5cccc(F)c5F)nc-4cn3)on2)c(C(F)(F)F)c1 [Compound 304, 2-(2,3-Difluoro-phenyl)-5-[3-(4-methyl-2-trifluoromethyl-phenyl)-isoxazol-5-ylmethyl]-5H-imidazo[4,5-d]pyridazine] | 99.7%
CC(C)c1ccc(-c2cc(Cn3cc4nc(-c5cccc(F)c5F)nc-4cn3)on2)cc1 [Compound 305, 2-(2,3-Difluoro-phenyl)-5-[3-(4-isopropyl-phenyl)-isoxazol-5-ylmethyl]-5H-imidazo[4,5-d]pyridazine] | 99.4%
Fc1cccc(-c2nc3cnn(Cc4cc(-c5ccc(I)cc5)no4)cc-3n2)c1F [Compound 306, 2-(2,3-Difluoro-phenyl)-5-[3-(4-iodo-phenyl)-isoxazol-5-ylmethyl]-5H-imidazo[4,5-d]pyridazine] | 99.9%
Cc1ccc(-c2cc(Cn3cc4nc(-c5cccc(F)c5F)nc-4cn3)on2)c(C)c1 [Compound 309, 2-(2,3-Difluoro-phenyl)-5-[3-(2,4-dimethyl-phenyl)-isoxazol-5-ylmethyl]-5H-imidazo[4,5-d]pyridazine] | 100%
Cc1cc(C#Cc2ccc(-c3cc(Cn4cc5nc(-c6cccc(F)c6F)nc-5cn4)on3)cc2)cc(C)n1 [Compound 310, 2-(2,3-Difluoro-phenyl)-5-{3-[4-(2,6-dimethyl-pyridin-4-ylethynyl)-phenyl]-isoxazol-5-ylmethyl}-5H-imidazo[4,5-d]pyridazine] | 99.4%
